{
  "source": "patent US7488466B2",
  "about": "“Preparation for determining pyrimidine metabolic capacity” (Otsuka Pharmaceutical Co., Ltd., priority 2002, dated 2009)",
  "key": {"[1]": {"target": "T1, dihydropyrimidine dehydrogenase (DPD) (Canis lupus familiaris, UniProt A0A8I3P1X8)", "T1 construct": "Fasted beagle dogs were used as experimental animals; from tissue; host or cells: whole living beagle dogs (in vivo)", "T1 sequence (A0A8I3P1X8 1-1026)": "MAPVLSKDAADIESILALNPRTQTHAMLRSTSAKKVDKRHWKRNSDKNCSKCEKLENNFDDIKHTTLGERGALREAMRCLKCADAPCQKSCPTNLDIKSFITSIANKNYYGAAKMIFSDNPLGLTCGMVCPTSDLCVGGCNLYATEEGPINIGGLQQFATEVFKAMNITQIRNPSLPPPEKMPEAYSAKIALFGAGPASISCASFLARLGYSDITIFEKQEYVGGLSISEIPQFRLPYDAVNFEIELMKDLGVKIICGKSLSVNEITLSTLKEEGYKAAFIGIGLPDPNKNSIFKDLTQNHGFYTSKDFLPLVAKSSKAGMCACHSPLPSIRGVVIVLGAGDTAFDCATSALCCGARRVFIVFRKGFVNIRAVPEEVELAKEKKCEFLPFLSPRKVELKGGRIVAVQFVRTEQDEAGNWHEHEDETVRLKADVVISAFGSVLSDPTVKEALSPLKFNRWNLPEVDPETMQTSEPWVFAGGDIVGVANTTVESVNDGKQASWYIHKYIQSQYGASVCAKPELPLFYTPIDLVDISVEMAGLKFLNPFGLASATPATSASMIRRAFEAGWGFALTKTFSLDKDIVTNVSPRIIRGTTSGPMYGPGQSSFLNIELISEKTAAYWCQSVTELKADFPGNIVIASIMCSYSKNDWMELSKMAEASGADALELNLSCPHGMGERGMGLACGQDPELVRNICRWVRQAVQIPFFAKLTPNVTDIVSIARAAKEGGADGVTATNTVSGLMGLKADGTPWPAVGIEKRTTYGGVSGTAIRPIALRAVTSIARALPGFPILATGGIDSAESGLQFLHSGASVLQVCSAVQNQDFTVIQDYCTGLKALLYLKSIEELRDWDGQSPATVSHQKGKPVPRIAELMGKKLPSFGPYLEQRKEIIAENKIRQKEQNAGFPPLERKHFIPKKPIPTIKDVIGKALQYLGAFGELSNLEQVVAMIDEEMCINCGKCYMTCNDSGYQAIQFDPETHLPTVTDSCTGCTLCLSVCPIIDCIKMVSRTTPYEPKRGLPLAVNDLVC", "test": "13CO2 excretion in expired air after intravenous injection of 2-13C-labeled uracil preparation (Example 1)", "format": "in vivo", "conditions": "FIG. 2", "protocol": "Uracil having […] carbon at the 2-position (2-^13C-labeled uracil) was used as an isotope-labeled pyrimidine compound. A preparation for determining the pyrimidine metabolic capacity in the form of an intravenous injection comprising the 2-^13C-labeled uracil as an active ingredient was prepared and tested for usefulness for determining pyrimidine metabolic capacity.\nUracil-2-^13C (Cambridge Isotope Laboratory) (300 mg) was dissolved in 24 ml of 0.1N NaOH/saline solution (measured out from 200 ml of 0.1N NaOH/saline solution prepared by diluting 2 ml of 10N sodium hydroxide solution with physiological saline), to give a preparation for determining the pyrimidine metabolic capacity in the form of an intravenous injection (containing 50 mg of uracil-2-^13C per 4 ml of the injection).\n(E)-5-(2-bromovinyl)-uracil (250 mg) and gum arabic (2.25 g) were mixed together, and the mixture was kneaded while adding a slight amount of water, to prepare 45 ml of a suspension (containing 83.3 mg of (E)-5-(2-bromovinyl)-uracil per 15 ml of the suspension).\nFasted beagle dogs were used as experimental animals. […] The concentration of ^13C-labeled carbon dioxide excreted in the collected expired air was measured using a GC-MS analyzer (ABCA-G, Europa Scientific). […]"}, "[2]": {"target": "T1, dihydropyrimidine dehydrogenase (DPD)", "test": "13CO2 excretion in expired air after oral administration of 2-13C-labeled uracil preparation (Example 2)", "format": "in vivo", "conditions": "FIG. 3", "protocol": "A preparation for determining the pyrimidine metabolic capacity in an oral form was prepared using the same 2-^13C-labeled uracil as used in Example 1 as an active ingredient, and tested for usefulness for measuring pyrimidine metabolic capacity.\n2-^13C-labeled uracil (Cambridge Isotope Laboratory) (300 mg) was dissolved in 24 ml of 0.1N NaOH/saline solution (measured out from 200 ml of 0.1N NaOH/saline solution prepared by diluting 2 ml of 10N sodium hydroxide solution with physiological saline). Then, water was added to give 60 ml of a preparation for determining pyrimidine metabolic capacity in the form of an oral solution (containing 50 mg of 2-^13C-labeled uracil per 10 ml of the oral solution).\nFasted beagle dogs were used as experimental animals. In Group 1 (n=3), the preparation prepared above in (1) was orally administered (50 mg/10 ml/body) (test group). […] The concentration of ^13C-labeled carbon dioxide excreted in the expired air was measured in the same manner as in Example 1, using a GC-MS analyzer (ABCA-G, Europa Scientific). […]"}, "[3]": {"test": "Dose dependence of 13CO2 concentration in expired air after oral 2-13C-labeled uracil (Example 3)", "format": "in vivo, beagle dogs", "conditions": "dose of 10 to 80 μmol/kg body weight, FIGS. 5 and 6", "protocol": "In 50 ml portions of 0.05N sodium hydroxide, 56.5 mg, 113.1 mg, 226.2 mg, and 452.3 mg of 2-^13C-labeled uracil (Cambridge Isotope Laboratory) were dissolved separately, to prepare solutions with concentrations of 10 μmol/ml, 20 μmol/ml, 40 μmol/ml, and 80 μmol/ml, respectively. The solutions were forcibly administered orally to fasted male beagle dogs (n=3) using oral tubes for dogs, in an amount of 1 ml/kg body weight (dose: […]), and thereafter water was forcibly administered orally in an amount of 2 ml/kg body weight. The expired air was collected before administration, and after 15, 30, 45, 60, 75, 90, 105, 120, 135, 150, 180, 210, and 240 minutes after administration. Then, the ^13C-labeled carbon dioxide concentration in the expired air was measured, and pharmacokinetic parameters (the area under the curve (AUC) and maximum ^13C-labled carbon dioxide concentration (Cmax)) were calculated from the obtained transition curve of the ^13C-labeled carbon dioxide concentration in the expired air."}, "[4]": {"tested_on": "dihydropyrimidine dehydrogenase (DPD)", "conditions": "Cancer Research 46, 1094-1101, 1986; cited from earlier work"}, "[5]": {"tested_on": "pyrimidine metabolic pathway", "conditions": "administered to the body; Cancer (Phila), 68, 499-501, 1991; cited from earlier work"}},
  "data": [
    {"smiles": "O=c1cc[nH][13c](=O)[nH]1", "note": "[2-^13C-labeled uracil]", "values": [
      {"measurement": "metabolism and excretion in the expired air as 13CO2", "setting": "[1]; test group, fasted beagle dogs, intravenous injection 50 mg/body, expired air 0-240 min", "value": "metabolized and excreted in the expired air as ^13CO2"},
      {"measurement": "metabolism and excretion in the expired air as 13CO2", "setting": "[2]; test group, fasted beagle dogs, oral 50 mg/10 ml/body, expired air 0-240 min", "value": "metabolized and excreted in the expired air as ^13CO2"},
      {"measurement": "excretion kinetics in the expired air (AUC and Cmax versus dose)", "setting": "[3]", "value": "has linearity"}
    ]},
    {"smiles": "O=c1[nH]cc(/C=C/Br)c(=O)[nH]1", "note": "[(E)-5-(2-bromovinyl)-uracil]", "values": [
      {"measurement": "excretion of 13CO2 in the expired air after DPD inhibitor pretreatment", "setting": "[1]; DPD inhibitor 83.3 mg/body orally 1 hour before intravenous 2-13C-labeled uracil 50 mg/body, compared with test group", "value": "markedly lower excretion"},
      {"measurement": "excretion of 13CO2 in the expired air after DPD inhibitor pretreatment", "setting": "[2]; DPD inhibitor 83.3 mg/15 ml/body orally 1 hour before oral 2-13C-labeled uracil 50 mg/10 ml/body, compared with test group", "value": "markedly reduced"},
      {"measurement": "DPD inhibitor activity", "setting": "[4]", "value": "known as a dihydropyrimidine dehydrogenase (DPD) inhibitor"}
    ]},
    {"smiles": "O=c1[nH]cc(F)c(=O)[nH]1", "note": "[5-FU, 5-fluorouracil]", "values": [
      {"measurement": "share of administered 5-FU degraded in the pyrimidine metabolic pathway", "setting": "[5]", "value": "about 80%"}
    ]}
  ]
}
